Test results from ChEMBL document CHEMBL3112495, “Diphenylpyridylethanamine (DPPE)-based aminoheterocycles as cholesteryl ester transfer protein inhibitors” (Bioorg Med Chem Lett, 2014).
Each block holds one compound with its values, some of them ahead of it.

Legend:
[1] = molecular target: T1, Cholesteryl ester transfer protein (Homo sapiens, UniProt P11597); experiment: Inhibition of human recombinant CETP using [3H]-CE/HDL by scintillation proximity assay
T1 sequence (P11597 whole entry): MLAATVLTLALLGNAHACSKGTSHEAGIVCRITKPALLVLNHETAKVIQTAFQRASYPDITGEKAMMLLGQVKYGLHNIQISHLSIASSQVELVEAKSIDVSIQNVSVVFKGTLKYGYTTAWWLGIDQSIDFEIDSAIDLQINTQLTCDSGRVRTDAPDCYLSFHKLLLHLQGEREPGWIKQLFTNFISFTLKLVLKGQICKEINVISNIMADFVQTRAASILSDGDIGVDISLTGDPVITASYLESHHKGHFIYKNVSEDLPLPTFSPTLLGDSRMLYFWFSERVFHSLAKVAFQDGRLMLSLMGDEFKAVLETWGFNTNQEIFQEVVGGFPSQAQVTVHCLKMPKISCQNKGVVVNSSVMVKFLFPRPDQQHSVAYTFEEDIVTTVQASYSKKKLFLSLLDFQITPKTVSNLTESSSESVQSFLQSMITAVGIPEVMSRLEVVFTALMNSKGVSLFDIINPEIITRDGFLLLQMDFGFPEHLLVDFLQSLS

Cytochrome P450 2C19 = Cytochrome P450 2C19 (Homo sapiens, UniProt P33261); experiment: Inhibition of CYP2C19 (unknown origin); type: ADME
Chain of Cytochrome P450 2C19 (P33261 whole entry): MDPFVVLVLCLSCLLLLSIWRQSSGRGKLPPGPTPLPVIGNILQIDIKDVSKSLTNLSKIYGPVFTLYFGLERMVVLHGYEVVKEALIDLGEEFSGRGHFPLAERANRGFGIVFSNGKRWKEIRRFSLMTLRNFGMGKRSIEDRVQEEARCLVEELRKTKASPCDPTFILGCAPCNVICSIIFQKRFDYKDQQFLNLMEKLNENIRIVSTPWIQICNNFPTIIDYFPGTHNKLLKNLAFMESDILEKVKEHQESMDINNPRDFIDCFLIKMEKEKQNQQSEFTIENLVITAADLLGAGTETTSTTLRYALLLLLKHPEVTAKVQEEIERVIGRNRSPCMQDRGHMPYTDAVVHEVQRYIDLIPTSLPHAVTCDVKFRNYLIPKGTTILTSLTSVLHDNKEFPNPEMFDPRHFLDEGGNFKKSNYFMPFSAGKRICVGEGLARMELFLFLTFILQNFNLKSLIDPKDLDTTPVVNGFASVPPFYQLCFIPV

Cytochrome P450 3A4 [2] = molecular target: T2, Cytochrome P450 3A4 (Homo sapiens, UniProt P08684); experiment: Inhibition of CYP3A4 (unknown origin) using benzyloxyresorufin as substrate; type: ADME
T2 sequence (P08684 whole entry): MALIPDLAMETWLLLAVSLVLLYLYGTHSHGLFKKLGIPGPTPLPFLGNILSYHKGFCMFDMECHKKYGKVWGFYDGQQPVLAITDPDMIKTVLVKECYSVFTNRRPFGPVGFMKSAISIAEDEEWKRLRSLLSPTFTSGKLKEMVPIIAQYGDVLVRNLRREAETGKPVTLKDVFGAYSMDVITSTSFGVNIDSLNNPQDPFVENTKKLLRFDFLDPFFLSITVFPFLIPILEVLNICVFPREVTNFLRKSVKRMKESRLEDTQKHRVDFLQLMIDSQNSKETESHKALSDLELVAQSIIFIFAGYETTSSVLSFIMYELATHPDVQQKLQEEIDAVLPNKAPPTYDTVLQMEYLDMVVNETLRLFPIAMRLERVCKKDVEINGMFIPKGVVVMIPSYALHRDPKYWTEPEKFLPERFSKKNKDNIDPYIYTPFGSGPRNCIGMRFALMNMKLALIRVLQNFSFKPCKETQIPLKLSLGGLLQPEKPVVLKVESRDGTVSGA

[3] = molecular target: T3, Nuclear receptor subfamily 1 group I member 2 (Homo sapiens, UniProt O75469); experiment: Activation of PXR (unknown origin)
T3 sequence (O75469 whole entry): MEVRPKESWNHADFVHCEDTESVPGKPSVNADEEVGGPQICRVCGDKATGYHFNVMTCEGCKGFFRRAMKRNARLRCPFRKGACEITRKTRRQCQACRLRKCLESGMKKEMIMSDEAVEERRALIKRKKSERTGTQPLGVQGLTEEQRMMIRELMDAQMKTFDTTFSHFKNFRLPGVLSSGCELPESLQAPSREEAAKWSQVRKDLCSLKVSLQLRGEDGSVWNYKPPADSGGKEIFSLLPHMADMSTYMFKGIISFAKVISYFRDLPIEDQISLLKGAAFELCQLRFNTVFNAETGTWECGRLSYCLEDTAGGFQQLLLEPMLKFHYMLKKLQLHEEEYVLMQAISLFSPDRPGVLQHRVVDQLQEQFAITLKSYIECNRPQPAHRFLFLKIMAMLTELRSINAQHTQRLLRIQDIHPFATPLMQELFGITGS

Cytochrome P450 2C9 = Cytochrome P450 2C9 (Homo sapiens, UniProt P11712); experiment: Inhibition of CYP2C9 (unknown origin); type: ADME
Chain of Cytochrome P450 2C9 (P11712 whole entry): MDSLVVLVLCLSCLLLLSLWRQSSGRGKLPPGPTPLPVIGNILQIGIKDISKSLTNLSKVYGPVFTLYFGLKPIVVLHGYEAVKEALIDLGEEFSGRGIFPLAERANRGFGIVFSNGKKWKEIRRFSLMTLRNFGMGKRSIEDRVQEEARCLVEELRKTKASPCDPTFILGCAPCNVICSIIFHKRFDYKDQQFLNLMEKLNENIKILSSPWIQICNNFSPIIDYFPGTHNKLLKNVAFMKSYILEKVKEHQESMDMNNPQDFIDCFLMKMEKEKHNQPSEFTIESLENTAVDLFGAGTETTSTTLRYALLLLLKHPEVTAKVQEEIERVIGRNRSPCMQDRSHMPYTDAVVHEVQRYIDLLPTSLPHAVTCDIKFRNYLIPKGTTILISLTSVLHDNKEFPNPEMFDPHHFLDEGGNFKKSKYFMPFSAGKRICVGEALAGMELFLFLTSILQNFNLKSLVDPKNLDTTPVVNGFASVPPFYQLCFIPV

PXR = molecular target: T4, PXR (Homo sapiens, UniProt O75469); experiment: Activation of PXR (unknown origin) relative to rifampicin
T4 sequence (O75469 whole entry): T3 sequence (O75469 whole entry)

[4] = molecular target: T1, Cholesteryl ester transfer protein; experiment: Inhibition of CETP in human whole plasma using [3H]-CE/HDL after 10 mins
Cytochrome P450 2D6 = Cytochrome P450 2D6 (Homo sapiens, UniProt P10635); experiment: Inhibition of CYP2D6 (unknown origin); type: ADME
Chain of Cytochrome P450 2D6 (P10635 whole entry): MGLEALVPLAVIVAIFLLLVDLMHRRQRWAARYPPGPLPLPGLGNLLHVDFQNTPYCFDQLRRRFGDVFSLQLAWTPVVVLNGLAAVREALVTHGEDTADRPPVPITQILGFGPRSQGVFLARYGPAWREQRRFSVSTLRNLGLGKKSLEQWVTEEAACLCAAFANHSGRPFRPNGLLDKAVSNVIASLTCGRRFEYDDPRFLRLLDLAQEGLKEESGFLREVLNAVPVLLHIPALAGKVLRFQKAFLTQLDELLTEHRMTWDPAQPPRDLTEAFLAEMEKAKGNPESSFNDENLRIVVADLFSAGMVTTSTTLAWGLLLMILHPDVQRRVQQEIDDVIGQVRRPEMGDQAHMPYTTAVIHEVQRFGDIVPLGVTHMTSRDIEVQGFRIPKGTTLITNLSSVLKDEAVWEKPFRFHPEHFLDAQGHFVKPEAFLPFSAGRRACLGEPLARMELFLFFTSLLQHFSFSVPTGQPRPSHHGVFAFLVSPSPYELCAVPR

Cytochrome P450 1A2 = molecular target: T5, Cytochrome P450 1A2 (Homo sapiens, UniProt P05177); experiment: Inhibition of CYP1A2 (unknown origin); type: ADME
T5 sequence (P05177 whole entry): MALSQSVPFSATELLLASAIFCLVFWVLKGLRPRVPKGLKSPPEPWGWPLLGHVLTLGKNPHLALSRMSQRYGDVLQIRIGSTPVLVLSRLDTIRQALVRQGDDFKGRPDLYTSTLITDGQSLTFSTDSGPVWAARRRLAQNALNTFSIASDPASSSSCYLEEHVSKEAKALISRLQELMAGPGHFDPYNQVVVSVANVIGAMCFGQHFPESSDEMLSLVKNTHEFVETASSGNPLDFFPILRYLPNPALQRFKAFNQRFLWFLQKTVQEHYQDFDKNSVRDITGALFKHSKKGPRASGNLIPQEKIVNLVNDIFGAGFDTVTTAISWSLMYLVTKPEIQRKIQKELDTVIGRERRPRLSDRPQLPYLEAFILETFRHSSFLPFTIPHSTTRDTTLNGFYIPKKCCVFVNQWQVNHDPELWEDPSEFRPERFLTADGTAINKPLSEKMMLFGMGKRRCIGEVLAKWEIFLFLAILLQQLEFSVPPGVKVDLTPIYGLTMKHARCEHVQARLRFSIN

Cytochrome P450 3A4 [5] = molecular target: T2, Cytochrome P450 3A4; experiment: Inhibition of CYP3A4 (unknown origin) using 7-benzyloxy-4-trifluoromethylcoumarin as substrate; type: ADME
[6] = Metabolic stability of the compound in mouse liver microsomes assessed as compound remaining after 10 mins; type: ADME, Microsome; conditions: read-out: Stability
[7] = Metabolic stability of the compound in rat liver microsomes assessed as compound remaining after 10 mins; type: ADME; conditions: read-out: Stability
[8] = Metabolic stability of the compound in human liver microsomes assessed as compound remaining after 10 mins; type: ADME; conditions: read-out: Stability

Structure (SMILES): Cn1nnc(NC(Cc2ccccc2)(c2cc(F)cc(C(F)(F)F)c2)c2ccc(Cl)cn2)n1 (stereo not given)
IC50 [1]: 11 µM

Structure (SMILES): Cc1cnc(NC(Cc2ccccc2)(c2cc(F)cc(C(F)(F)F)c2)c2ccc(Cl)cn2)s1 (stereo not given)
IC50 [1]: 1.1 µM

Structure (SMILES): Fc1cc(OC(F)(F)C(F)F)cc([C@@](Cc2ccccc2)(Nc2nc3ccccc3[nH]2)c2ccc(Cl)cn2)c1
IC50 (Cytochrome P450 2C19): 3 µM
IC50 (Cytochrome P450 3A4 [2]): 13 µM
EC60 [3]: > 17 µM
IC50 (Cytochrome P450 2C9): 19 µM
Emax (PXR): 70%
IC50 [1]: 0.09 µM
IC50 [4]: 15 µM
IC50 (Cytochrome P450 2D6): 40 µM
IC50 (Cytochrome P450 1A2): 40 µM
IC50 (Cytochrome P450 3A4 [5]): 40 µM

Structure (SMILES): Fc1cc(C(F)(F)F)cc(C(Cc2ccccc2)(Nc2nc3ccccc3s2)c2ccc(Cl)cn2)c1 (stereo not given)
IC50 [1]: 0.5 µM
IC50 [4]: 23 µM

Structure (SMILES): Fc1cc(C(F)(F)F)cc(C(Cc2ccccc2)(Nc2nc3ccccc3[nH]2)c2ccc(Cl)cn2)c1 (stereo not given)
IC50 [1]: 0.2 µM
IC50 [4]: 19.6 µM

Structure (SMILES): Fc1cc(C(F)(F)F)cc(C(Cc2ccccc2)(Nc2ncc(-c3ccccc3)o2)c2ccc(Cl)cn2)c1 (stereo not given)
IC50 [1]: 12 µM

Structure (SMILES): Cc1nc(N[C@@](Cc2ccccc2)(c2cc(F)cc(C(F)(F)F)c2)c2ccc(Cl)cn2)sc1C
IC50 [1]: 12.2 µM

Structure (SMILES): CC(C)(C)c1csc(NC(Cc2ccccc2)(c2cc(F)cc(C(F)(F)F)c2)c2ccc(Cl)cn2)n1 (stereo not given)
IC50 [1]: 7.5 µM

Structure (SMILES): Cc1nc(NC(Cc2ccccc2)(c2cc(F)cc(C(F)(F)F)c2)c2ccc(Cl)cn2)sc1C (racemic)
IC50 [1]: 0.4 µM
IC50 [4]: 29.5 µM

The remaining compounds from weak to strong by IC50 [1], led by results:

IC50 [1]: 32 µM
Structure (SMILES): COC(=O)c1sc(NC(Cc2ccccc2)(c2cc(F)cc(C(F)(F)F)c2)c2ccc(Cl)cn2)nc1C (stereo not given)

IC50 [1]: 2 µM
Structure (SMILES): Fc1cc(C(F)(F)F)cc(C(Cc2ccccc2)(Nc2nc3ccccc3o2)c2ccc(Cl)cn2)c1 (stereo not given)

IC50 [1]: 1.2 µM
Structure (SMILES): Fc1cc(C(F)(F)F)cc(C(Cc2ccccc2)(Nc2nc(C(F)(F)F)cs2)c2ccc(Cl)cn2)c1 (stereo not given)

IC50 (Cytochrome P450 2C19): 2 µM
IC50 (Cytochrome P450 3A4 [2]): 40 µM
remaining at 10 min [6]: 62%
EC60 [3]: > 17 µM
IC50 (Cytochrome P450 2C9): 40 µM
Emax (PXR): 56%
IC50 [1]: 0.05 µM
IC50 [4]: 9.5 µM
remaining at 10 min [7]: 95%
IC50 (Cytochrome P450 2D6): 29 µM
IC50 (Cytochrome P450 1A2): 40 µM
IC50 (Cytochrome P450 3A4 [5]): 32 µM
remaining at 10 min [8]: 56%
Structure (SMILES): Fc1cc(OC(F)(F)C(F)F)cc([C@@](Cc2ccccc2)(Nc2nc3cc(F)ccc3[nH]2)c2ccc(Cl)cn2)c1

IC50 (Cytochrome P450 2C19): > 40 µM
IC50 (Cytochrome P450 3A4 [2]): > 40 µM
remaining at 10 min [6]: 59%
EC60 [3]: > 5.6 µM
IC50 (Cytochrome P450 2C9): > 40 µM
Emax (PXR): 44%
IC50 [1]: 0.02 µM
IC50 [4]: 3.2 µM
remaining at 10 min [7]: 55%
IC50 (Cytochrome P450 2D6): > 40 µM
IC50 (Cytochrome P450 1A2): > 40 µM
IC50 (Cytochrome P450 3A4 [5]): > 40 µM
remaining at 10 min [8]: 82%
Structure (SMILES): Cc1sc(N[C@](Cc2ccccc2)(c2cc(F)cc(OC(F)(F)C(F)F)c2)c2ccc(Cl)cn2)nc1C(F)(F)F
